Reference: patent US10039759B2, “Quinolines as FGFR kinase modulators” (priority 2011, dated 2018)
Read-outs that look alike come from different tables or passages of the source.

What was measured:
[1] = test system: Ba/F3-FGFR3-transfected cells; assay: Ba/F3-FGFR3 (minus IL3 or plus IL3) cellular proliferation assay, Alamar Blue; assay type: cell-based; conditions: for IC50: read-out: BAF3-FGFR3 (PLUS IL3 Alamar Blue pIC50) (converted)
Method in brief: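 Ba/F3-FGFR3 cells (20000 per well) in phenol red-free RPMI-1640 with 10% FBS were exposed to compound (10 μM to 0.1 nM) for 24 h at 37° C. Alamar Blue was then added for 4 h and fluorescence read (ex 540, em 590 nm) to give IC50/pIC50; the counterscreen was run with 10 ng/ml murine IL3.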

[2] = test system: Ba/F3-KDR-transfected cells; assay: Ba/F3-KDR (minus IL3 or plus IL3) cellular proliferation assay, Alamar Blue; assay type: cell-based; conditions: for IC50: read-out: BAF3-KDR (PLUS IL3 Alamar Blue pIC50) (converted)
Method in brief: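 Ba/F3-KDR cells, 20000 per well, exposed to compounds (10 μM to 0.1 nM) for 24 h at 37°C in RPMI/10% FBS, then Alamar Blue for 4 h; fluorescence ex 540/em 590 nm gives IC50 and pIC50. Counterscreen run with 10 ng/ml murine IL3.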

[3] = test system: Ba/F3-FGFR1-transfected cells; assay: Ba/F3-FGFR1 (minus IL3 or plus IL3) cellular proliferation assay, Alamar Blue; assay type: cell-based; conditions: plus IL3 (10 ng/ml murine IL3, counterscreen), 24 hours
Method in brief: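 Ba/F3-FGFR1 cells (20000/well) were treated with compound (10 μM–0.1 nM) for 24 h at 37 °C. Alamar Blue was then added for 4 h, with fluorescence read at ex 540/em 590 nm to give IC50/pIC50. A counterscreen was run with 10 ng/ml murine IL3.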

[4] = test system: Ba/F3-Flt3-transfected cells; assay: Ba/F3-Flt3 (minus IL3 or plus IL3) cellular proliferation assay, Alamar Blue; assay type: cell-based; conditions: plus IL3 (10 ng/ml murine IL3, counterscreen), 24 hours
Method: Ba/F3-Flt3 (Minus IL3 or Plus IL3) (Cellular Proliferation Assay)
In a 384 well plate, 100 nl of compound dilution in DMSO was sprayed before adding 50 μl cell culture medium (phenol red free RPMI-1640, 10% FBS, 2 mM L-Glutamine and 50 μg/ml Gentamycin) containing 20000 cells per well of Ba/F3-Flt3-transfected cells. Cells were put in an incubator at 37° C. and 5% CO2. After 24 hours, 10 μl of Alamar Blue solution (0.5 mM K3Fe(CN)6, 0.5 mM K4Fe(CN)6, 0.15 mM Resazurin and 100 mM Phosphate Buffer) was added to the wells, incubated for 4 hours at 37° C. and 5% CO2 before RFU's (Relative Fluorescence Units) (ex. 540 nm., em. 590 nm.) were measured in a fluorescence plate reader.
In this assay, the inhibitory effect of different compound concentrations (range 10 μM to 0.1 nM) was determined and used to calculate an IC50 (M) and pIC50 (−log IC50) value. As a counterscreen the same experiment was performed in the presence of 10 ng/ml murine IL3.

[5] = plus IL3 (10 ng/ml murine IL3, counterscreen), 24 hours, Alamar Blue

SMILES | IC50 [1, 5] [µM] | IC50 [2, 5] [µM] | melting point [°C] | also measured
COc1cc(OC)cc(N(CC(O)C(F)(F)F)c2ccc3ncc(-c4cnn(C)c4)cc3c2)c1 (single isomer, unassigned) [Compound 24] | > 10 | > 10 | – | –
COc1cc(OC)cc(N(CC(O)C(F)(F)F)c2ccc3ncc(-c4cnn(C)c4)cc3c2)c1 (single isomer, unassigned) [Compound 25] | – | – | – | BAF3-FGFR1 (PLUS IL3 pIC50) [3]: <5; BAF3-FLT3 (PLUS IL3 Alamar Blue pIC50) [4]: <5; BAF3-FGFR3 (PLUS IL3 Alamar Blue pIC50) [1, 5]: <5; BAF3-KDR (PLUS IL3 Alamar Blue pIC50) [2, 5]: <5
COc1cc(OC)cc(N(CCO)c2ccc3ncc(-c4cnn(C)c4)cc3c2)c1 [Compound 3] | > 10 | > 10 | 195 to 196 | –
COc1cc(OC)cc(N(CCCO)c2ccc3ncc(-c4cnn(C)c4)cc3c2)c1 [Compound 4] | > 10 | > 10 | – | –
C#CCN(c1cc(OC)cc(OC)c1)c1ccc2ncc(-c3cnn(C)c3)cc2c1 [Compound 6] | > 10 | > 10 | – | –
COc1cc(OC)cc(N(CC2CCN(c3nccc(OC)n3)C2)c2ccc3ncc(-c4cnn(C)c4)cc3c2)c1 (stereo not shown) [Compound 7] | > 10 | > 10 | 132 | –
COc1cc(OC)cc(N(Cc2ncccn2)c2ccc3ncc(-c4cnn(C)c4)cc3c2)c1 [Compound 8] | > 10 | > 10 | 151 | –
COc1cc(OC)cc(N(Cc2nccn2S(=O)(=O)N(C)C)c2ccc3ncc(-c4cnn(C)c4)cc3c2)c1 [Compound 9] | > 10 | > 10 | – | –
COc1cc(OC)cc(N(CCCN)c2ccc3ncc(-c4cnn(C)c4)cc3c2)c1 [Compound 11] | > 10 | > 10 | – | –
COc1cc(OC)cc(C(O)c2ccc3ncc(-c4cnn(C)c4)cc3c2)c1 (stereo not shown) [Compound 12] | – | – | 184 to 193 | IC50 ([1]; 24 h): > 10 µM; IC50 ([2]; 24 h): > 10 µM
COc1cc(OC)cc(N(CCNC(C)C)c2ccc3ncc(-c4cnn(CCS(C)(=O)=O)c4)cc3c2)c1 [Compound 14] | > 10 | > 10 | 129 | –
COc1cc(OC)cc(N(CC#Cc2nccc(OC)n2)c2ccc3ncc(-c4cnn(C)c4)cc3c2)c1 [Compound 16] | – | – | 203 | –
COc1cc(OC)cc(N(CC#Cc2ncccc2OC)c2ccc3ncc(-c4cnn(C)c4)cc3c2)c1 [Compound 17] | > 10 | > 10 | – | –
COc1cc(OC)cc(N(Cc2ncc[nH]2)c2ccc3ncc(-c4cnn(C)c4)cc3c2)c1 [Compound 18] | > 10 | > 10 | 196 | –
COc1cc(OC)cc(N(CCNC(C)C)c2ccc3ncc(-c4cn[nH]c4)cc3c2)c1 [Compound 21] | > 10 | > 10 | – | –
COc1cc(OC)cc(N(CCNC(C)C)c2ccc3ncc(-c4cnn(C5CCCCO5)c4)cc3c2)c1 (stereo not shown) [Compound 22] | > 10 | > 10 | – | –
COc1cc(OC)cc(N(CCCN2CCCC2CNS(=O)(=O)C(F)(F)F)c2ccc3ncc(-c4cnn(C)c4)cc3c2)c1 (stereo not shown) [Compound 47] | > 10 | > 10 | – | –
COc1cc(OC)cc(N(CC#Cc2nccn2C)c2ccc3ncc(-c4cnn(C)c4)cc3c2)c1 [Compound 48] | > 10 | > 10 | – | –
COc1cc(OC)cc(N(Cc2nccn2S(=O)(=O)N(C)C)c2ccc3ncc(-c4ccncc4)cc3c2)c1 [Compound 58] | > 10 | > 10 | – | –
COc1cc(OC)cc(N(Cc2ncc[nH]2)c2ccc3ncc(-c4cccnc4)cc3c2)c1 [Compound 59] | > 10 | > 10 | – | –
COc1cc(Nc2ccc3ncc(-c4cnn(C5CCCCO5)c4)cc3c2)cc(OC)c1 (stereo not shown) [Int. 8] | > 10 | > 10 | – | –
